Results published in patent US20100076072A1, “COMPOSITIONS AND METHODS OF VITAMIN E ADMINISTRATION” (NORTHWESTERN UNIVERSITY, priority 2008, published 2010).

Assays:
[1] = test system: OVA-challenged mice (experimental asthma); assay: OVA experimental asthma: lung tissue eosinophils (anti-major basic protein immunolabeling); type: in vivo, mouse; settings: daily s.c. 2 μg tocopherol days 13-20, day 21
[2] = test system: VCAM-1-dependent spleen cell migration across mHEVa endothelial cells; assay: In vitro Transwell migration assay; type: cell-based, mouse; settings: for Migration after pretreatment of leukocytes with tocopherol and washing: leukocytes pretreated, washed; for Lymphocyte migration in transwell migration assay: tocopherol left in culture, 24 hours after addition of spleen cells, 80 μM α / 5 μM γ
Experimental: In vitro Transwell migration assay. mHEVa cells were grown to confluence on Transwells with 12 μm pores (Costar Cambridge, Mass.). The mHEVc cell monolayers block nonspecific accumulation of red blood cells in the lower transwell chamber and block FITC-albumin diffusion. Spleen cell migration is stimulated by mHEV cell secretion of the chemokine MCP-1. The number of lymphocytes that migrate is linear from 0-24 hrs followed by a plateau. Spleen cells that migrate are greater than 95% lymphocytes and the percentage of cells that migrate is consistent with other in vitro models with endothelial cell lines or cytokine-activated microvascular endothelial cells.
In this transendothelial migration assay used, the migrated spleen cells are >95% lymphocytes and the B cells and T cells migrate in response to MCP-1. […]

PKCα = target: T1, PKCα (Mus musculus, UniProt P20444); assay: VCAM-1 activation of endothelial cell PKCα (PKCα-Thr638 phosphorylation, western blot); type: cell-based; settings: overnight 80 μM α-tocopherol / 2 μM γ-tocopherol; anti-VCAM-1 stimulation 10 minutes
T1 construct: endogenous in cells; host or cells: endothelial cells (mHEVa named)
Experimental: Endothelial cells were pretreated overnight with physiological concentrations of tocopherols (80 μM α-tocopherol and/or 2 μM γ-tocopherol). Endothelial cell VCAM-1 was stimulated with anti-VCAM-1 and a secondary antibody for 10 minutes. Phosphorylation of PKCα-Thr^638 was examined by western blot, developed using an ECL kit, and analyzed by densitometry as in the methods section. These concentrations of α-tocopherol (80 μM) and γ-tocopherol (2 μM) were optimal for their inhibition or enhancement, respectively, of VCAM-1 activation of PKCα (data not shown). Shown are representative blots and data from 5 experiments. *, p<0.05 compared to nonstimulated groups. **, p<0.05 compared to nonstimulated groups and p<0.07 compared to DMSO-treated/anti-VCAM-stimulated group.

arthritis = assay: Arthritis
[3] = test system: OVA-challenged mice (experimental asthma); assay: OVA experimental asthma: leukocyte infiltration into bronchoalveolar lavage (BAL); type: in vivo, mouse
Experimental: Reagents. Ethoxylated castor oil was composed of polyethoxylated castor oil (PEG35), 20% ethanol, and 1% benzyl alcohol. […] The purified tocopherols were diluted in ethoxylated castor oil to indicated concentrations for the in vivo studies. The purified tocopherols were diluted in DMSO (0.2%) for the in vitro studies. OVA administration. BALB/c female mice were maintained on chow diet. The mice were sensitized by intraperitoneal injection (200 μl) of OVA grade V (10 μg)/alum or saline/alum on days 0 and 7 (SEE FIG. 1). On days 13-20, these mice received daily subcutaneous injections (50 μl) of 2 μg natural tocopherol/ethoxylated castor oil or ethoxylated castor oil alone. This daily 2 μg of natural tocopherol is equivalent to the amount of tocopherol that mice consume from diets (4 g diet consumed/day×500 mg α-tocopherol/kg diet) that are commonly used to elevate tissue tocopherols in mice. The mice recieved 2 μg d-α-tocopherol, 2 μg d-γ-tocopherol, 2 μg d-α-tocopherol plus 2 μg d-γ-tocopherol or the vehicle exthoxylated castor oil. […] During the OVA responses in mice, tocopherol radicals are recycled by endogenously synthesized ascorbic acid. On days 16, 18, and 20, the mice were challenged with intranasal OVA fraction VI (150 μg) in saline or saline alone. On day 21, the mice were analyzed for airway responsiveness followed by collection of tissues.
(§1) Tissue collection. After airway function analysis, mice were weighed, sacrificed and the lungs flushed twice with 0.8 ml PBS. The cells in this bronchoalveolar lavage (BAL) were cytospun onto slides, DiffQuik (Baxter) stained, and differential cell counts were performed. BAL supernatants were snap frozen and stored at −80° C. for cytokine analysis. Lungs were perfused free of blood and one quarter of the lung was tied off, collected, weighed, snap frozen, and stored at −80° C. for tocopherol analysis and PGE2 analysis. One quarter of the lung was collected and placed in RNA later for analysis of mRNA for eotaxin expression. The other half of the lung was injected with 40% freezing compound, collected and stored at −80° C. for tissue sections and histological staining Frozen sections were prepared rather than paraffin sections since the anti-mouse VCAM-1 antibodies only bind to VCAM-1 in frozen sections.
(§2) Mice were sensitized with intraperitoneal injection of OVA grade V (10 μg)/alum or saline/alum on days 0 and 7 (SEE FIG. 2). On days 13-20, these mice received daily subcutaneous injections (500) of 2 μg natural tocopherol/ethoxylated castor oil (33) or ethoxylated castor oil alone. This daily 2 μg of natural tocopherol is equivalent to the amount of tocopherol that mice consume from diets (4 g diet consumed/day×500 mg a tocopherol/kg diet) that are commonly used to elevate tissue tocopherols in mice. On days 16, 18, and 20 the mice were challenged with intranasal OVA fraction VI (150 μg) in saline or saline alone. On day 21, the mice were analyzed for airway responsiveness and then tissues were collected. Lung responsiveness was determined using methacholine and whole-body plethysmography as previously described. This method of measuring lung function has the advantage of analysis of larger numbers of animals, as compared to the few animals that can be analyzed using invasive measures of lung function. The whole-body plethysmography correlates well with airway function when performed under continuous flow conditions. This measurement under continuous flow is critical as it avoids the complication of airway conditioning that occurs if these measurements are incorrectly made under closed conditions. After airway analysis, mice were sacrificed and tissues collected.

[4] = Body and lung weights on day 21; type: in vivo, mouse; settings: mice, day 21, daily s.c. tocopherol days 13-20
Experimental: as §1
Body weight and tocopherol levels in these mice were examined. […] Consistent with this, the body weight and lung weights of the mice studied during the development of embodiments of the present invention were unaltered by the α-tocopherol or γ-tocopherol treatments (SEE FIG. 3). Lungs were perfused to remove the blood, homogenized in ethanol and extracted with hexane. Tocopherol concentrations were determined by HPLC with an electrochemical detector. The lung tissue and plasma levels of tocopherols were elevated (SEE FIG. 4). […] The level of γ-tocopherol in the lung tissue of γ-tocopherol-treated mice was 10 fold lower than lung tissue α-tocopherol in the α-tocopherol-treated mice. This 10 fold difference in α-tocopherol and γ-tocopherol levels in the lung tissues may be caused preferential transfer of α-tocopherol in the liver by a TTP (20, 24), although the present invention is not limited to any particular mechanism of action and an understanding of the mechanism of action is not necessary to practice the present invention. […] Administration of tocopherols also had no effect on the low levels of δ-tocopherol in the lung (SEE FIG. 4A).

[5] = Tocopherol levels in lung tissue and plasma (HPLC, electrochemical detector); type: in vivo, mouse; settings: for Lung tissue level of the other tocopherol (α vs γ) / Lung tissue level of the administered tocopherol: mice; for Lung tissue level of the administered tocopherol: day 21, daily s.c. 2 μg tocopherol days 13-20
Experimental: Body weight and tocopherol levels in these mice were examined. […] Lungs were perfused to remove the blood, homogenized in ethanol and extracted with hexane. Tocopherol concentrations were determined by HPLC with an electrochemical detector.

[6] = test system: OVA-challenged mice (experimental asthma); assay: Airway hyperresponsiveness to methacholine, whole-body plethysmography (Penh); type: in vivo, mouse; settings: for Airway hyperresponsiveness (AHR), enhanced pause (Penh): OVA-challenged BALB/c mice, methacholine dose curve, day 21
Experimental: Airway Hyperresponsiveness. Lung responsiveness was determined using methacholine as previously described. On day 21, the mice were analyzed for airway responsiveness by whole body plethysmology. The whole-body plethysmography on conscious, unrestrained mice was performed under continuous airflow conditions (Buxco, Troy, N.Y.). Continuous airflow was used to avoid the influence of conditioning on airway functions, causing aberrant measurements. Enhanced pause (Penh) values were calculated from the flow-derived whole-body plethysmography measurements done with continuous air flow. Penh is a unitless indicator of changes in airway resistance and correlates well with specific airway resistance. Baseline readings were averaged for 5 minutes. Saline or methacholine was nebulized into the airflow for 2-minute periods and the average Penh value calculated for this and the subsequent 8 minutes.
as §2, with “This measurement under continuous flow is critical as it avoids the complication of airway conditioning that occurs if these measurements are incorrectly made under closed conditions. After airway analysis, mice were sacrificed and tissues collected.” left out

[7] = in vivo; cited from earlier work
[8] = test system: delayed-type-hypersensitivity responses; settings: in vivo; cited from earlier work
[9] = test system: adhesion molecule expression; settings: atherosclerosis models; cited from earlier work
[10] = test system: endotoxin-stimulated neutrophil infiltration into the lung; settings: other animal models; cited from earlier work
[11] = test system: VCAM-1-dependent lymphocyte migration across mHEVa endothelial cells; assay: Transendothelial migration assay with physiological laminar flow (parallel plate flow chamber); type: cell-based, mouse; settings: endothelial cells pretreated overnight, washed; 15 minutes, 2 dynes/cm^2
Experimental: In vitro cell association and migration assays with laminar flow. The parallel plate flow chamber was used to examine migration under conditions of laminar flow. Endothelial cells were grown to confluence on slides and then the slide was placed in a parallel plate flow chamber. In vivo, in the absence of inflammation, the rapid fluid dynamics of the blood result in blood cells located midstream of the vascular flow. However, during inflammation, there is a change of fluid dynamics. […]
Therefore, spleen cells (3×10^6) were added to the flow chamber (35 cm^2) at 2 dynes/cm^2. […] To initiate spleen cell contact with the endothelial cells in vitro, the spleen cells were allowed to settle in the chamber as monitored by microscopy and then 2 dynes/cm^2 was applied for the 15 minute laminar flow assay. […] To quantify migrated spleen cells at 15 minutes, phase contrast microscopy was used to count migrated cells that are phase dark. Under laminar flow, spleen cell migration was detected at 15 minutes. The number of spleen cells that were associated but not migrated (phase light cells) at 15 minutes is low since in 15 minutes, the majority of non-migrating cells roll off the monolayer of endothelial cells as determined by microscopy. […]

lung = settings: in vivo; cited from earlier work
[12] = OVA-challenged BALB/c mice, daily s.c. 2 μg tocopherol days 13-20, day 21, vs OVA-challenged vehicle
[13] = OVA-challenged mice, co-treatment with α-tocopherol

| SMILES | Eosinophils in the lung tissue [1] | Migration after pretreatment of leukocytes with tocopherol and washing [2] | Lymphocyte migration in transwell migration assay [2] | VCAM-1 activation of PKCα (phosphorylation of PKCα-Thr638) (PKCα) | OVA-stimulated infiltration of eosinophils into the BAL [3, 12] | OVA-stimulated infiltration of lymphocytes into the BAL [3, 12] | OVA-stimulated infiltration of monocytes into the BAL [3, 12] | Body weight [4] | Lung weights [4] | Lung tissue level of the other tocopherol (α vs γ) ([5]; day 21) | Lung tissue level of the administered tocopherol [5] | Airway hyperresponsiveness (AHR), enhanced pause (Penh) [6] | further results |
| --- | --- | --- | --- | --- | --- | --- | --- | --- | --- | --- | --- | --- | --- |
| Cc1c(O)cc2c(c1C)O[C@](C)(CCC[C@H](C)CCC[C@H](C)CCCC(C)C)CC2 [γ-tocopherol, d-γ-tocopherol] | elevated | no effect on migration | significantly increases lymphocyte migration | enhancement | significantly increased | significantly increased | significantly increased | unaltered | unaltered | did not alter | elevated levels | elevated | Effect on α-tocopherol inhibition of spleen cell migration ([2]; 5 μM γ-tocopherol with α-tocopherol (80 μM)-treated cells): ablated; Lymphocyte migration after pretreatment of endothelial cells ([2]; endothelial cells pretreated, washed five times, transwell assay): elevated lymphocyte migration; Effect on arthritis (arthritis): exacerbatory effect; OVA-stimulated infiltration of neutrophils into the BAL [3, 12]: significantly increased; Effect on the benefit of α-tocopherol (BAL leukocyte infiltration) [3, 13]: blocked the benefit of α-tocopherol; Lung tissue γ-tocopherol in γ-tocopherol-treated mice relative to lung tissue α-tocopherol in α-tocopherol-treated mice ([5]; day 21): 10 fold lower; Effect on α-tocopherol inhibition of AHR [6, 13]: antagonized the inhibition by α-tocopherol; Retention in tissues relative to α-tocopherol [7]: 10% |
| Cc1c(C)c2c(c(C)c1O)CC[C@@](C)(CCC[C@H](C)CCC[C@H](C)CCCC(C)C)O2 [α-tocopherol, d-α-tocopherol, reference compound] | reduced | no effect on migration | inhibited lymphocyte migration | inhibition | significantly reduced | significantly reduced | significantly reduced | unaltered | unaltered | did not alter | elevated levels | completely ablated | Delayed-type-hypersensitivity responses [8]: reduces; Adhesion molecule expression [9]: inhibit; Endotoxin-stimulated neutrophil infiltration into the lung [10]: reduces; VCAM-1-dependent lymphocyte migration under laminar flow [11]: inhibited; High oxidation by ozone and smoke in the lung (lung): reduces; Increase in α-tocopherol in lungs of α-tocopherol-treated mice ([5]; day 21): five-fold increase |
